According to ChEMBL document CHEMBL2177020, “Structure-activity relationship studies of orally active antimalarial 3,5-substituted 2-aminopyridines” (J Med Chem, 2012):
≈ marks a conversion by molar mass, not a printed value.

What was measured:
physchem = details: octanol/water, pH 7.4
[1] = Kinetic solubility of the compound in 0.01M HCl at pH 2 by nephelometry analysis; format: physicochemical; details: read-out: Kinetic_solubility
[2] = Kinetic solubility of the compound in phosphate buffer at pH 6.5 by nephelometry analysis; format: physicochemical; details: read-out: Kinetic_solubility
[3] = Plasma concentration in Swiss mouse at 30 mg/kg, po after 24 hrs; format: ADME, organism-based; design: dose 30 mg/kg, route oral
[4] = Plasma concentration in Swiss mouse at 30 mg/kg, po after 0.5 hrs; format: ADME, organism-based; design: dose 30 mg/kg, route oral
[5] = Plasma concentration in Swiss mouse at 30 mg/kg, po after 8 hrs; format: ADME, organism-based; design: dose 30 mg/kg, route oral
Plasma [6] = experiment: Average plasma concentration in Swiss mouse at 30 mg/kg, po after up to 24 hrs; format: ADME, organism-based; design: dose 30 mg/kg, route oral; details: in vivo
Plasma [7] = experiment: Average plasma concentration in Swiss mouse at 30 mg/kg, po after up to 8 hrs; format: ADME, organism-based; design: dose 30 mg/kg, route oral; details: in vivo

Row | logD (physchem) | solubility kinetic [1] [µg/mL] | solubility kinetic [2] [µg/mL] | concentration at 24 h [3] [nM] | concentration at 0.5 h [4] [nM] | concentration at 8 h [5] [nM] | Cave (Plasma [6]) [nM] | Cave (Plasma [7]) [nM] | Structure (SMILES)
1 | 3.9 | > 100 | 25 (≈ 56.8 µM) | – | – | – | – | – | CN1CCN(C(=O)c2ccc(-c3cnc(N)c(-c4ccc(C(F)(F)F)cc4)c3)cc2)CC1
2 | 2.4 | > 100 | 50 (≈ 117 µM) | – | – | – | – | – | Nc1ncc(-c2ccc(C(=O)N3CCNCC3)cc2)cc1-c1ccc(C(F)(F)F)nc1
3 | 3.3 | > 100 | 25 (≈ 58.6 µM) | – | – | – | – | – | Nc1ncc(-c2ccc(C(=O)N3CCNCC3)cc2)cc1-c1ccc(C(F)(F)F)cc1
4 | 2.6 | > 100 | 12.5 (≈ 34.8 µM) | – | – | – | – | – | COc1ccc(-c2cc(-c3ccc(-c4nnc(C)o4)cc3)cnc2N)cn1
5 | 2.4 | > 100 | 12.5 (≈ 39.4 µM) | – | – | – | – | – | COc1ccc(-c2cc(-c3ccc4nccn4c3)cnc2N)cn1
6 | 3 | > 100 | 6.3 (≈ 19 µM) | – | – | – | – | – | COc1ccc(-c2cc(-c3ccc4cnn(C)c4c3)cnc2N)cn1
7 | 2.9 | > 100 | 6.3 (≈ 19.2 µM) | – | – | – | – | – | COc1ccc(-c2cc(-c3ccc4ncccc4c3)cnc2N)cn1
8 | 0.8 | 12.5 (≈ 38.9 µM) | 6.3 (≈ 19.6 µM) | – | – | – | – | – | COc1ccc(-c2cc(-c3ccc(C(=O)O)cc3)cnc2N)cn1
9 | 1.7 | > 100 | 12.5 (≈ 39 µM) | 10 | 10600 | 1300 | 2400 | 8200 | COc1ccc(-c2cc(-c3ccc(C(N)=O)cc3)cnc2N)cn1
10 | 1.7 | > 100 | 12.5 (≈ 39 µM) | – | – | – | – | – | COc1ccc(-c2cc(-c3cccc(C(N)=O)c3)cnc2N)cn1
11 | 2.1 | > 100 | > 100 | < 1 | 30800 | 6400 | – | 25100 | COc1ccc(-c2cc(-c3ccc(C(=O)N(C)C)cc3)cnc2N)cn1
12 | 1.8 | 50 (≈ 150 µM) | 50 (≈ 150 µM) | – | – | – | – | – | CNC(=O)c1ccc(-c2cnc(N)c(-c3ccc(OC)nc3)c2)cc1
13 | – | > 100 | 12.5 (≈ 33 µM) | – | – | – | – | – | COc1ccc(-c2cc(-c3ccc(C(=O)NCCCO)cc3)cnc2N)cn1
14 | 1.9 | > 100 | > 100 | – | – | – | – | – | COc1ccc(-c2cc(-c3ccc(C(=O)NCCN4CCOCC4)cc3)cnc2N)cn1
15 | 2.5 | > 100 | > 100 | – | – | – | – | – | COc1ccc(-c2cc(-c3ccc(C(=O)NCCN4CCCC4)cc3)cnc2N)cn1
16 | 2 | > 100 | > 100 | – | – | – | – | – | COc1ccc(-c2cc(-c3ccc(C(=O)N4CCN(C)CC4)cc3)cnc2N)cn1
17 | 2 | 25 (≈ 64 µM) | 25 (≈ 64 µM) | – | 10300 | 800 | – | 7800 | COc1ccc(-c2cc(-c3ccc(C(=O)N4CCOCC4)cc3)cnc2N)cn1
18 | 2.4 | > 100 | 25 (≈ 58.4 µM) | – | 4110 | 840 | – | 3400 | Nc1ncc(-c2ccc(C(=O)N3CCOCC3)cc2)cc1-c1ccc(C(F)(F)F)nc1

Row | logD (physchem) | solubility kinetic [1] [µg/mL] | solubility kinetic [2] [µg/mL] | concentration at 24 h [3] [nM] | concentration at 0.5 h [4] [nM] | concentration at 8 h [5] [nM] | Cave (Plasma [6]) [nM] | Cave (Plasma [7]) [nM] | Structure (SMILES)
19 | 3.1 | > 100 | 6.3 (≈ 14.7 µM) | 1 | 300 | 50 | 100 | 200 | Nc1ncc(-c2ccc(C(=O)N3CCOCC3)cc2)cc1-c1ccc(C(F)(F)F)cc1
20 | 2.9 | > 100 | > 100 | – | – | – | – | – | CN1CCN(C(=O)c2ccc(-c3cnc(N)c(-c4ccc(C(F)(F)F)nc4)c3)cc2)CC1
21 | 2.3 | > 100 | 25 (≈ 70.3 µM) | – | – | – | – | – | COc1ccc(-c2cc(-c3cccc(S(C)(=O)=O)c3)cnc2N)cn1
22 | 2.8 | > 100 | 6.3 (≈ 16.4 µM) | – | – | – | – | – | COc1ccc(-c2cc(-c3ccc(S(=O)(=O)N(C)C)cc3)cnc2N)cn1
23 | 2.2 | > 100 | 12.5 (≈ 33.7 µM) | – | – | – | – | – | CNS(=O)(=O)c1ccc(-c2cnc(N)c(-c3ccc(OC)nc3)c2)cc1
24 | 1.8 | > 100 | 12.5 (≈ 35.1 µM) | – | – | – | – | – | COc1ccc(-c2cc(-c3ccc(S(N)(=O)=O)cc3)cnc2N)cn1
25 | 2.7 | > 100 | 6.3 (≈ 15.9 µM) | – | – | – | – | – | COc1ccc(-c2cc(-c3ccc(S(=O)(=O)NC4CC4)cc3)cnc2N)cn1
26 | 2.7 | > 100 | 6.3 (≈ 14.8 µM) | – | – | – | – | – | COc1ccc(-c2cc(-c3ccc(S(=O)(=O)N4CCOCC4)cc3)cnc2N)cn1
27 | 2.7 | > 100 | 25 (≈ 56.9 µM) | – | – | – | – | – | COc1ccc(-c2cc(-c3ccc(S(=O)(=O)N4CCN(C)CC4)cc3)cnc2N)cn1
28 | 2.2 | > 100 | 25 (≈ 67.5 µM) | – | – | – | – | – | COc1ccc(-c2cc(-c3ccc(NS(C)(=O)=O)cc3)cnc2N)cn1
29 | 2.5 | > 100 | 6.3 (≈ 16.9 µM) | – | – | – | – | – | COc1ccc(-c2cc(-c3ccc(S(C)(=O)=O)c(F)c3)cnc2N)cn1
30 | 2.7 | > 100 | 12.5 (≈ 29.5 µM) | – | – | – | – | – | COc1ccc(-c2cc(-c3ccc(S(C)(=O)=O)cc3C(F)(F)F)cnc2N)cn1
31 | 4.3 | > 100 | 1.6 (≈ 4.43 µM) | – | – | – | – | – | COc1ccc(-c2cc(-c3ccc(OC(F)(F)F)cc3)cnc2N)cn1
32 | 4.2 | > 100 | 1.6 (≈ 4.63 µM) | – | – | – | – | – | COc1ccc(-c2cc(-c3ccc(C(F)(F)F)cc3)cnc2N)cn1
33 | 2.8 | > 100 | 25 (≈ 81.1 µM) | – | – | – | – | – | COc1ccc(-c2cnc(N)c(-c3ccc(OC)nc3)c2)cn1
34 | 2.4 | > 100 | 6.3 (≈ 18.3 µM) | – | – | – | – | – | COc1ccc(-c2cc(-c3ccc(-n4cncn4)cc3)cnc2N)cn1
35 | 3.1 | > 100 | 3.1 (≈ 9.03 µM) | – | – | – | – | – | COc1ccc(-c2cc(-c3ccc(-n4cccn4)cc3)cnc2N)cn1
